Assay results taken from patent US8871753B2, “Macrocyclic compounds and their use as kinase inhibitors” (Incyte Corporation, priority 2008, dated 2014).
Where two headings read alike, the source gives them in different places.

Assays:
[1] = tested on: IL-6-dependent MM cell lines; settings: cited from earlier work
[2] = tested on: myeloid dendritic cells (DCs); settings: CD40-induced maturation of myeloid DCs; cited from earlier work
[3] = from COc1ccc(Nc2nc(Cl)ncc2Cl)cc1CCc1cncc(N)c1; cn_pd bond; 13-membered ring; Pd(OAc)2/Xantphos/Cs2CO3; 1,4-dioxane/DMF 1:1; 77.0 mM; 150.0 °C; 0.33 h
[4] = patients; cited from earlier work
[5] = target: T1, human JAK1 (a.a. 837-1142) (Homo sapiens, UniProt P23458); assay: In vitro JAK kinase assay (HTRF, phosphorylation of a biotinylated peptide), JAK1; assay type: biochemical; settings: read-out: JAK1 IC50
T1 construct: human JAK1 (a.a. 837-1142); His tag (N); made in house; host or cells: insect cells (baculovirus)
T1 sequence (P23458 849-1154): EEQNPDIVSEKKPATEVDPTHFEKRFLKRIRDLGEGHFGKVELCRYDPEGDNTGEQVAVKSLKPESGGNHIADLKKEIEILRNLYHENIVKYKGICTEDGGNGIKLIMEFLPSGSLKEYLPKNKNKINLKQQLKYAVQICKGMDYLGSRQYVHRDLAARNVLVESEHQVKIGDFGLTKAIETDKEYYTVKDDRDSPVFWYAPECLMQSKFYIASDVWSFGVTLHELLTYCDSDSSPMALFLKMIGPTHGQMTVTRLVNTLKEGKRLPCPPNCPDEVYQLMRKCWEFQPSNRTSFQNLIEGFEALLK
Method in brief: (§1)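 Phosphorylation of a biotinylated peptide by the JAK kinase domain, detected by HTRF with Eu-Py20 and SA-APC. ATP was 90 μM for JAK1, 30 μM for JAK2 and 3 μM for JAK3. Reactions ran 1 h at room temperature and were stopped with EDTA, followed by 40 min antibody binding.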

[6] = target: T2, Recombinant Human Anaplastic Lymphoma Kinase (Homo sapiens, UniProt Q9UM73); assay: ALK HTRF kinase assay; assay type: biochemical; settings: compound at a concentration of 500 nM or 1 mM
T2 construct: purchased Invitrogen, Carlsbad, Calif
T2 sequence (Q9UM73 19-1620): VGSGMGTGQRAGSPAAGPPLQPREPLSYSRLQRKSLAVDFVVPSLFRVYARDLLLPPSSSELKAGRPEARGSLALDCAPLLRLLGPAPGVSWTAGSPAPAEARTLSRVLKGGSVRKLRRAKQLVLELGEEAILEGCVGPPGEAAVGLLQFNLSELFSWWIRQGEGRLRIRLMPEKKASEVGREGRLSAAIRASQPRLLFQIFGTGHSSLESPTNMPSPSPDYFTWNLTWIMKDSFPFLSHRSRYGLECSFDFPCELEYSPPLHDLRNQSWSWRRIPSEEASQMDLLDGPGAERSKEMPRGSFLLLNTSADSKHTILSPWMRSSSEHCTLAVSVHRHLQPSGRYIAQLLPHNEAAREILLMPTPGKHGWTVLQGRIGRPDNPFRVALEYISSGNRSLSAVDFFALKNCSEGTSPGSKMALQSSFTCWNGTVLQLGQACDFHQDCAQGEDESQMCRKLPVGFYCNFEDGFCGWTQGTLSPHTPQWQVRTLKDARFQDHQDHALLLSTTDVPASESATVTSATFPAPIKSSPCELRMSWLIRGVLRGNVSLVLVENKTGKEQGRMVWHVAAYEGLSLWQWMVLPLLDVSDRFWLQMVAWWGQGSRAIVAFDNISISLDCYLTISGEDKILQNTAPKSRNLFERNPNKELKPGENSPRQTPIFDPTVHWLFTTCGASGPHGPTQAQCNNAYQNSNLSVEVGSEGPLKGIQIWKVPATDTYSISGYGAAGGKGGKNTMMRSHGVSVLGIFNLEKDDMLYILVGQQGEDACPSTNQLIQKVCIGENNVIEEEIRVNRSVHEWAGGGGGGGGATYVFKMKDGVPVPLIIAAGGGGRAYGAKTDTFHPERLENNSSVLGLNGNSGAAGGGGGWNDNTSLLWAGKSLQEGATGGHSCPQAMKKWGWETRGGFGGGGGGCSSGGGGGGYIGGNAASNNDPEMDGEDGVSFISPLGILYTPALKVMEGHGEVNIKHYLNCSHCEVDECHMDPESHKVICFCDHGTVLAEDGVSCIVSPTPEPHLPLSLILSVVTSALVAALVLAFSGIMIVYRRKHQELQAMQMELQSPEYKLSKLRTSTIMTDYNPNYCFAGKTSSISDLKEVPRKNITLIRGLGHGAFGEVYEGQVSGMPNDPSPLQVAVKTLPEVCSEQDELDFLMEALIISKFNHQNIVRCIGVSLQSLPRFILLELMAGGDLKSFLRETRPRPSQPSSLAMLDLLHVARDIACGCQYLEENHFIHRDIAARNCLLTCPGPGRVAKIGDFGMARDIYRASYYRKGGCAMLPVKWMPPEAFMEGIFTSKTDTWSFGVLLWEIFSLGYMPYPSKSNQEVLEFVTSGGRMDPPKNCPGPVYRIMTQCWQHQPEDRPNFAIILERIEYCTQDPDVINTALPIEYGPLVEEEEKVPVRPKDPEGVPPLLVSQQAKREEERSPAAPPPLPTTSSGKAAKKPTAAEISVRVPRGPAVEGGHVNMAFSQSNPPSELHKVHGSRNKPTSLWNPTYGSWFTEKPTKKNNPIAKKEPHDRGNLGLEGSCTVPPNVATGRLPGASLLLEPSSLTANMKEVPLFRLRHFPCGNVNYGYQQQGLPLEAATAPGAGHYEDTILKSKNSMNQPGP
Method in brief: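 TR-FRET read-out (Eu anti-pTyr antibody + streptavidin-APC) of biotin-peptide phosphorylation by recombinant human enzyme; IC50 by sigmoidal fit with top/bottom baselines and Hill slope.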

[7] = target: TYK2 (Homo sapiens, UniProt P29597); assay: TYK2 kinase inhibition (Table A1); assay type: biochemical
TYK2, sequence (P29597 whole entry): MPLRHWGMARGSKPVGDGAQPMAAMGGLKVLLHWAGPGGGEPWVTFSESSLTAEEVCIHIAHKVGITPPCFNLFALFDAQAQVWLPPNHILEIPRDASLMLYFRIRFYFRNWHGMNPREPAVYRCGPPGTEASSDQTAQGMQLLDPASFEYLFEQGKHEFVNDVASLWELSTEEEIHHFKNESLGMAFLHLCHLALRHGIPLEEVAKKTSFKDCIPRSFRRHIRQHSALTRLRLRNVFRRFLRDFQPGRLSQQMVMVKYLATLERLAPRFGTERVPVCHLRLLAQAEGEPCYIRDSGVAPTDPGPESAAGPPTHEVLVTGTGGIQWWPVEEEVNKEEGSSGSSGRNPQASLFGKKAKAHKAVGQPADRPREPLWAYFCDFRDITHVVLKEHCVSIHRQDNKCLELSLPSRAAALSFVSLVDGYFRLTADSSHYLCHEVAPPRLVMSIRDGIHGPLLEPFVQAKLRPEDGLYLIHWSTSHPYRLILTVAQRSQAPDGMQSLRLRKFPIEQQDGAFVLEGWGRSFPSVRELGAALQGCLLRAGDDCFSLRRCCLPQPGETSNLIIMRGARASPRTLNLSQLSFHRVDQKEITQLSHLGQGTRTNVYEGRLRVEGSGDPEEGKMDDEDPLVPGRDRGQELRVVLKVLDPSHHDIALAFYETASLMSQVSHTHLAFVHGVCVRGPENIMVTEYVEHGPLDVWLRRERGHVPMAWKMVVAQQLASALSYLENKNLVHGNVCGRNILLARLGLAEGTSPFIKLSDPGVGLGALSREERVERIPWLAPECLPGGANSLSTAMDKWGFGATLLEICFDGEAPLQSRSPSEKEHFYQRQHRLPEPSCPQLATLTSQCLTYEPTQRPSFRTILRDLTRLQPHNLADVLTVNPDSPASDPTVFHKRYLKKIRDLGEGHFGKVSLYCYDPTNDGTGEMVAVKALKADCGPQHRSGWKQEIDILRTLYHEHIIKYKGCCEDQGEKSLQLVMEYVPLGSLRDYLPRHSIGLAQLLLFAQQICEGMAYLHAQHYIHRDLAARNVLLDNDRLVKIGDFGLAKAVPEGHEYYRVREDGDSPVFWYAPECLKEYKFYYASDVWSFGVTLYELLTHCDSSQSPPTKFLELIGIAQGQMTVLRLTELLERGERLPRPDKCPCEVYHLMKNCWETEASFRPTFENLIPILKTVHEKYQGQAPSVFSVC

[8] = cn_pd bond, 13-membered ring, Pd(OAc)2/Xantphos/Cs2CO3/Et3N
[9] = target: T3, human JAK2 (a.a. 828-1132) (Homo sapiens, UniProt O60674); assay: In vitro JAK kinase assay (HTRF, phosphorylation of a biotinylated peptide), JAK2; assay type: biochemical
T3 construct: JAK2 (a.a. 828-1132); His tag (N); made in house; host or cells: insect cells (baculovirus)
T3 sequence (O60674 828-1132): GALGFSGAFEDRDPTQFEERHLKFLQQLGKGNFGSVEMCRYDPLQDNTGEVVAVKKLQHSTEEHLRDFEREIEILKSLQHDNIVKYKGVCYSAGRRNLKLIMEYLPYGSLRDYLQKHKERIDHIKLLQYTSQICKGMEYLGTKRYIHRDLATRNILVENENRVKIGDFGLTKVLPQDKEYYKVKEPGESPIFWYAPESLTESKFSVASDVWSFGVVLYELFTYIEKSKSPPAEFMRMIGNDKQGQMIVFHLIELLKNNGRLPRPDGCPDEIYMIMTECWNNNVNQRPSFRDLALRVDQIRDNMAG
Method in brief: as §1

[10] = target: T4, human JAK3 (a.a. 781-1124) (Homo sapiens, UniProt P52333); assay: In vitro JAK kinase assay (HTRF, phosphorylation of a biotinylated peptide), JAK3; assay type: biochemical
T4 construct: JAK3 (a.a. 781-1124); His tag (N); made in house; host or cells: insect cells (baculovirus)
T4 sequence (P52333 781-1124): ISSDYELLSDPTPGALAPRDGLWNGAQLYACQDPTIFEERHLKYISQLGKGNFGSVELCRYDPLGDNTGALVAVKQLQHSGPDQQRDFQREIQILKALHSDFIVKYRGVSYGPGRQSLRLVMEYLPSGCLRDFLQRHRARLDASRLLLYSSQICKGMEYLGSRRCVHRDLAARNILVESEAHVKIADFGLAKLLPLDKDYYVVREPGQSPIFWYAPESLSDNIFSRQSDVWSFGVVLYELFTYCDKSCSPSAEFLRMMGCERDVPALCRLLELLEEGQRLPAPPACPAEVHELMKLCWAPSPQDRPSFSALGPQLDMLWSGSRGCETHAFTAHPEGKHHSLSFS
Method in brief: as §1

[11] = tested on: NOD mouse; settings: NOD mouse model of autoimmune type 1 diabetes; cited from earlier work

IC50 [5] [nM] | ALK % inhibition at a concentration of 500 nM or 1 mM [6] [%] | IC50 [7] [nM] | IC50 [9] [nM] | IC50 [10] [nM] | Compound | further results
– | – | – | – | – | CC(C)(C)c1nc2c3cc[nH]c(=O)c3c3cc(F)ccc3c2[nH]1 [pyridone 6] | STAT3 phosphorylation [1]: inhibited; tumor cell proliferation and survival [1]: inhibited
– | – | – | – | – | COc1cc2ncnc(Nc3ccc(O)c(Br)c3)c2cc1OC [WHI-P-154] | CD40-induced effects (JAK3 activity, costimulatory molecule expression, IL-12 production, allogeneic stimulatory capacity) [2]: prevented these effects
– | – | – | – | – | COc1ccc2cc1CCc1cncc(c1)Nc1ncc(Cl)c(n1)N2 | ring closure, crude yield [3]: 85%
– | – | – | – | – | C#Cc1cccc(Nc2ncnc3cc(OCCOC)c(OCCOC)cc23)c1 [Tarceva] | acneiform rash [4]: induced acneiform rash with some patients
> 1000 | 3 | > 1000 | > 1000 | > 1000 | Fc1cnc2nc1Nc1cccc(c1)CCc1cccc(n1)N2 [Example C18, 6-Fluoro-2,4,8,20,22-pentaazatetracyclo[14.3.1.1(3,7).1(9,13)]docosa-1(20),3(22),4,6,9(21),10,12,16,18-nonaene] | ring closure, isolated yield ([8]; from Nc1cccc(CCc2cccc(Nc3nc(Cl)ncc3F)c2)n1, 1,4-dioxane/DMF 1:1, 60.0 mM, 160.0 °C, 1.0 h): 25%
> 1000 | 1 | > 1000 | > 1000 | > 1000 | Clc1cnc2nc1Nc1cccc(c1)CCc1cccc(n1)N2 [Example C17, 6-Chloro-2,4,8,20,22-pentaazatetracyclo[14.3.1.1(3,7).1(9,13)]docosa-1(20),3(22),4,6,9(21),10,12,16,18-nonaene] | ring closure, isolated yield ([8]; from Nc1cccc(CCc2cccc(Nc3nc(Cl)ncc3Cl)c2)n1, 1,4-dioxane/DMF 1:1, 75.0 mM, 160.0 °C, 0.5 h): 37%
– | – | – | – | – | COc1cc2ncnc(Nc3ccc(O)cc3)c2cc1OC [JANEX-1] | onset of diabetes [11]: delayed the onset of diabetes
14 | 26 | 13 | 9.5 | 39 | Clc1cnc2nc1Nc1cccc(c1)CCc1cc(ccn1)N2 [Example C12, 6-Chloro-2,4,8,17,22-pentaazatetracyclo[14.3.1.1(3,7).1(9,13)]docosa-1(20),3(22),4,6,9(21),10,12,16,18-nonaene] | ring closure, isolated yield ([8]; from Nc1ccnc(CCc2cccc(Nc3nc(Cl)ncc3Cl)c2)c1, 1,4-dioxane, 117.0 mM, 150.0 °C, 0.5 h): 36%
> 1000 | 14 | 83 | 60 | 350 | Fc1cnc2nc1Nc1cccc(c1)CCc1ccnc(c1)N2 [Example C16, 6-Fluoro-2,4,8,19,22-pentaazatetracyclo[14.3.1.1(3,7).1(9,13)]docosa-1(20),3(22),4,6,9(21),10,12,16,18-nonaene] | ring closure, isolated yield ([8]; from Nc1cc(CCc2cccc(Nc3nc(Cl)ncc3F)c2)ccn1, 1,4-dioxane/DMF 1:1, 60.0 mM, 160.0 °C, 0.5 h): 30%
